Laboratory results published in patent publication US20070293512A1, “Condensed Pyrimidine Deriviative and Xanthine Oxidase Inhibitor” (priority 2004, published 2007).
pIC50: −log10 of the molar value. Counter-ions that a name gives are not always drawn.

Assays:
[1] = molecular target: T1, Cow milk Xanthine Oxidase (Bos taurus, UniProt P80457); experiment: Xanthine oxidase inhibition, in vitro (oxidation of xanthine, absorbance at 290 nm); type: biochemical; details: xanthine 250 μM, 50 mM phosphate buffer pH 7.5, 30° C., 10 minutes
T1 construct: Cow milk Xanthine Oxidase (Roche); purchased Roche; host or cells: cow milk (natural source)
Description: The xanthine oxidase inhibiting action (in vitro test) of the compound of the invention was confirmed by measuring inhibition of oxidation of xanthine by xanthine oxidase, as described in Example 50. As is clear from Tables 11 and 12, the compounds of the invention show excellent xanthine oxidase inhibiting action.
Pharmacological Experiment 1 (In Vitro Measuring Method)
1. Preparation of Test Sample
The test compound was dissolved in dimethylsulfoxide and diluted with 50 mM phosphate buffer (pH 7.5), to give a solution of a predetermined concentration.
125 μL of each of the solutions of the test compound having different concentrations was added to 1 mL of a solution of Xanthine (SIGMA, 250 μM) in the 50 mM phosphor buffer (pH 7.5). The mixture was then pre-incubated at 30° C. for 5 min. Subsequently, to the pre-incubated mixture was added 125 μL of Cow milk Xanthine Oxidase (Roche) diluted with the 50 mM phosphate buffer (pH 7.5) to 70 mU/mL, and the mixture was subjected to reaction at 30° C. for 10 minutes. Then, 1N hydrochloric acid, (200 μL) was added to the reaction mixture to terminate the reaction. Subsequently, absorbance at OD 290 nm was measured by means of a spectrophotometer (Shimadzu UV-160A)., to obtain a inhibition ratio. The measured inhibition ration was used to obtain […]
The inhibition ratio was calculated according to the following formula: Inhibition ratio (%)=[1−(B−C)/(A−C)]×100 • A: absorbance of control • B: absorbance measured on a sample containing test compound • C: absorbance of blank (Test Results)

[2] = system: in-plasma uric acid value; experiment: In vivo test: in-plasma uric acid value-inhibition after single oral administration to mouse; details: ICR mouse, blood one hour after administration; for In Vivo (%) TMX-67 (0.3 mg/kg): activity value relative to TMX-67 (0.3 mg/kg), single oral 0.3 mg/kg; for In Vivo (%) allopurinol (3 mg/kg): activity value relative to allopurinol (3 mg/kg), single oral 3 mg/kg
Description: The xanthine oxidase inhibiting action was. further confirmed in vivo tests by measuring the uric acid concentration in a plasma obtained from mouse into which the compound of the invention had been orally administered. See Example 51, Tables 11 and 12.
Pharmacological Experiment 2 (In Vivo Test)
The test compound suspended in 1% methylcellulose solution in an amount of 0.3 mg/kg or 3 mg/kg was administered to unfasted ICR mouse (7 W) by forced single oral administration. The blood was collected from main artery from the mouse under etherization after one hour from the administration. The plasma was separated from the collected blood in the conventional manner. The plasma was then subjected to measurement of uric acid value by the enzyme method by means of an automatic analytical apparatus (7060E), to obtain an in-plasma uric acid value-inhibition ratio in the test sample-administered group as compared with a ratio.obtained in the normal group.
Based on the obtained in-plasma uric acid inhibition ratio, activity values (%) relative to activity values obtained in the simultaneously conducted tests using TMX-67 (0.3 mg/kg) or allopurinol (3 mg/kg).

T1 sequence (P80457 whole entry): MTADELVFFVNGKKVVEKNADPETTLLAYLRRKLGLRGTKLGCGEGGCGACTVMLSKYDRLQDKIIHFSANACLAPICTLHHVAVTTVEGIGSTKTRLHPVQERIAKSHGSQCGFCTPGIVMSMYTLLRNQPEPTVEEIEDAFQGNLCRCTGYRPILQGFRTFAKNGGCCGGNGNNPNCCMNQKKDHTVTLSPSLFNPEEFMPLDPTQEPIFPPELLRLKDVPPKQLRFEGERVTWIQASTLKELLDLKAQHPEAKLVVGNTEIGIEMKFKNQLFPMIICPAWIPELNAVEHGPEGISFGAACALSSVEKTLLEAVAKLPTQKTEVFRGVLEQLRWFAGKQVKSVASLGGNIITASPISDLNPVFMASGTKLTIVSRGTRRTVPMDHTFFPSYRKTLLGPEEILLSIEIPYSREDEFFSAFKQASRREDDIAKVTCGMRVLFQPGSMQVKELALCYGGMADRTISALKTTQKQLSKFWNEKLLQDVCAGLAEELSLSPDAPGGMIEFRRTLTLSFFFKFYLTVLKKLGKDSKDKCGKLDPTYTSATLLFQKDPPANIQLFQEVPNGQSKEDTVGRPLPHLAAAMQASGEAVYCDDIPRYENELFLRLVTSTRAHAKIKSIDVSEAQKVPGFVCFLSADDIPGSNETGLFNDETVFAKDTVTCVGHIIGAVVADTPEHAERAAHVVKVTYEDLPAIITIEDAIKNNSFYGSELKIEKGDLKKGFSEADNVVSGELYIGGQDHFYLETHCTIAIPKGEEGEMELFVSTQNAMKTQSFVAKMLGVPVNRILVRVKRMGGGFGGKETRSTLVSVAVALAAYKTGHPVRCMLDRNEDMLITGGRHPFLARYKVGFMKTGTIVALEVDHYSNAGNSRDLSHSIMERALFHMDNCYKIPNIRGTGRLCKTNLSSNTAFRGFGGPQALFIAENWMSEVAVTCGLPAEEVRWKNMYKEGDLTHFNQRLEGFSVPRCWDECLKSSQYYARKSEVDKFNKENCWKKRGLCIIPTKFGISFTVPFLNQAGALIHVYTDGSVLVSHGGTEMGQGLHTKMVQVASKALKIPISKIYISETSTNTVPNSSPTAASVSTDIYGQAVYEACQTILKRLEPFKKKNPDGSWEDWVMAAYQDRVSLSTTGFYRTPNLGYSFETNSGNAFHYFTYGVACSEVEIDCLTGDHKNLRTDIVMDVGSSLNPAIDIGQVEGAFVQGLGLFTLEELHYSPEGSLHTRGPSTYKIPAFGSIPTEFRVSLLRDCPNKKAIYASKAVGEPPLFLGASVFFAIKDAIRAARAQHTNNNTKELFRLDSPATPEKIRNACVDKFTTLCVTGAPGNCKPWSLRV

Row | pIC50 [1] | Compound | In Vivo (%) TMX-67 (0.3 mg/kg) [2] | other results
1 | 7.43 | O=[N+]([O-])c1cc(-c2nc3c(O)ncnc3s2)ccc1Oc1ccc(-c2ccccc2)cc1 [Example 31, 4-Hydroxy-2-[3-nitro-4-(4-phenylphenoxy)-phenyl]thiazolo[5,4-d]pyrimidine] | – | –
2 | 7.86 | O=[N+]([O-])c1cc(-c2nc3c(O)ncnc3s2)ccc1Sc1ccc(Cl)cc1 [Example 2, 2-[4-(4-Chlorophenylthio)-3-nitrophenyl]-4-hydroxythiazolo[5,4-d]pyrimidine] | – | –
3 | 8.06 | O=[N+]([O-])c1cc(-c2nc3c(O)ncnc3s2)ccc1Oc1ccccc1 [Example 7, 4-Hydroxy-2-(3-nitro-4-phenoxyphenyl)-thiazolo[5,4-d]pyrimidine] | – | melting point: 278 to 281 °C (dec.)
4 | 8.01 | O=C(O)c1ccc(Oc2ccc(-c3nc4c(O)ncnc4s3)cc2[N+](=O)[O-])cc1 [Example 26, 2-[4-(4-Carboxyphenoxy)-3-nitrophenyl]-4-hydroxythiazolo[5,4-d]pyrimidine] | – | –
5 | 8.10 | O=[N+]([O-])c1cc(-c2nc3c(O)ncnc3s2)ccc1Oc1ccccc1Cl [Example 18, 2-[4-(2-Chlorophenoxy)-3-nitrophenyl]-4-hydroxythiazolo[5,4-d]pyrimidine] | – | melting point: 283 to 288 °C (dec.)
6 | 8.27 | O=[N+]([O-])c1cc(-c2nc3c(O)ncnc3s2)ccc1Oc1ccccc1F [Example 21, 2-[4-(2-Fluorophenoxy)-3-nitrophenyl]-4-hydroxythiazolo[5,4-d]pyrimidine] | – | –
7 | 7.97 | N#Cc1cc(-c2nc3c([O-])ncnc3s2)ccc1Oc1ccccc1.[K+] [Example 49, 2-(3-Cyano-4-phenoxyphenyl)-4-hydroxy-thiazolo[5,4-d]pyrimidine potassium salt] | 140% | –
8 | 7.73 | COC(=O)c1ccc(Oc2ccc(-c3nc4c(O)ncnc4s3)cc2[N+](=O)[O-])cc1 [Example 25, 4-Hydroxy-2-[4-(4-methoxycarbonylphenoxy)-3-nitrophenyl]thiazolo[5,4-d]pyrimidine] | – | –
9 | – | O=[N+]([O-])c1cc(-c2nc3c([O-])ncnc3s2)ccc1Oc1ccccc1.[K+] [Example 8, 2-(3-Nitro-4-phenoxyphenyl)-4-hydroxythia-zolo[5,4-d]pyrimidine potassium salt] | 125% | –
10 | – | 2-[3-Cyano-4-(4-fluorophenoxy)phenyl]-4-hydroxythiazolo[5,4-d]pyrimidine potassium salt [Example 37] | 107% | –
11 | 7.72 | O=[N+]([O-])c1cc(-c2nc3c(O)ncnc3s2)ccc1Sc1ccc(Cl)cc1 [Example 3, 2-[4-(4-Chlorophenylthio)-3-nitrophenyl]-4-hydroxythiazolo[5,4-d]pyrimidine potassium salt] | – | –
12 | 8.03 | O=[N+]([O-])c1cc(-c2nc3c(O)ncnc3s2)ccc1Oc1ccc(F)cc1 [Example 12, 2-[4-(4-Fluorophenoxy)-3-nitrophenyl]-4-hydroxythiazolo[5,4-d]pyrimidine] | – | melting point: 282 to 284 °C (dec.)
13 | – | COc1ncnc2sc(-c3ccc(Oc4ccc(F)cc4)c(C#N)c3)nc12 [Example 40, 2-[3-Cyano-4-(4-fluorophenoxy)phenyl]-4-methoxythiazolo[5,4-d]pyrimidine] | 30% | In Vivo (%) allopurinol (3 mg/kg) [2]: 107%
14 | 7.65 | 2-[4-(4-Chlorophenylthio)-3-cyanophenyl]-4-hydroxythiazolo[5,4-d]pyrimidine potassium salt [Example 10] | 84% | –
15 | 7.69 | O=[N+]([O-])c1cc(-c2nc3c(O)ncnc3s2)ccc1Oc1ccc(Cl)cc1 [Example 5, 2-[4-(4-Chlorophenoxy)-3-nitrophenyl]-4-hydroxythiazolo[5,4-d]pyrimidine] | – | melting point: 304 to 306 °C (dec.)
16 | 7.28 | O=[N+]([O-])c1cc(-c2nc3c(O)ncnc3s2)ccc1Oc1ccc(C(F)(F)F)cc1 [Example 16, 4-Hydroxy-2-[3-nitro-4-[4-(trifluoromethyl)-phenoxy]phenyl]thiazolo[5,4-d]pyrimidine] | – | –

Row | pIC50 [1] | Compound | In Vivo (%) TMX-67 (0.3 mg/kg) [2] | other results
17 | 8.07 | COc1ccc(Oc2ccc(-c3nc4c(O)ncnc4s3)cc2[N+](=O)[O-])cc1 [Example 14, 2-[4-(4-Methoxyphenoxy)-3-nitrophenyl]-4-hydroxythiazolo[5,4-d]pyrimidine] | – | –
18 | 6.92 | CC(C)c1ccc(Oc2ccc(-c3nc4c(O)ncnc4s3)cc2[N+](=O)[O-])cc1 [Example 30, 4-Hydroxy-2-[4-(4-isopropylphenoxy)-3-nitro-phenyl]thiazolo[5,4-d]pyrimidine] | – | –
19 | 7.17 | O=[N+]([O-])c1cc(-c2nc3c(O)ncnc3s2)ccc1Oc1ccc(Oc2ccccc2)cc1 [Example 28, 2-[3-Nitro-4-(4-phenoxyphenoxy)phenyl]-4-hydroxythiazolo[5,4-d]pyrimidine] | – | –
20 | – | O=[N+]([O-])c1cc(-c2nc3c(O)ncnc3s2)ccc1Oc1cccnc1.[K] [Example 33, 4-Hydroxy-2-[3-nitro-4-(3-pyridyloxy)-phenyl]thiazolo[5,4-d)pyrimidine potassium salt] | 48% | –
21 | 7.61 | O=[N+]([O-])c1cc(-c2nc3c(O)ncnc3s2)ccc1Nc1ccccc1 [Example 29, 2-(3-Nitro-4-phenylaminophenyl)-4-hydroxy-thiazolo[5,4-d]pyrimidine] | – | –
22 | 7.73 | O=[N+]([O-])c1cc(-c2nc3c(O)ncnc3s2)ccc1Sc1ccccc1 [Example 4, 4-Hydroxy-2-(3-nitro-4-phenylthiophenyl)thiazolo[5,4-d]pyrimidine] | – | –
23 | – | O=[N+]([O-])c1cc(-c2nc3c([O-])ncnc3s2)ccc1Oc1ccc(F)cc1.[K+] [Example 13, 2-[4-(4-Fluorophenoxy)-3-nitrophenyl]-4-hydroxythiazolo[5,4-d]pyrimidine potassium salt] | 141% | –
24 | 7.77 | O=[N+]([O-])c1cc(-c2nc3c(O)ncnc3s2)ccc1Oc1cccc(Cl)c1 [Example 17, 2-[4-(3-Chlorophenoxy)-3-nitrophenyl]-4-hydroxythiazolo[5,4-d]pyrimidine] | – | –
25 | 7.73 | 2-[4-(4-Chlorophenoxy)-3-cyanophenyl]-4-hydroxythiazolo[5,4-d]pyrimidine potassium salt [Example 24] | 28% | –
26 | 7.84 | N#Cc1cc(-c2nc3c(O)ncnc3s2)ccc1Sc1ccc(Cl)cc1 [Example 9, 2-[4-(4-Chlorophenylthio)-3-cyanophenyl]-4-hydroxythiazolo[5,4-d]pyrimidine] | – | –
27 | 7.28 | O=[N+]([O-])c1cc(-c2nc3c(O)ncnc3s2)ccc1Oc1ccc(Cl)c2ccccc12 [Example 11, 2-[4-(4-Chloro-1-naphthoxy)-3-nitrophenyl]-4-hydroxythiazolo[5,4-d]pyrimidine] | – | –
28 | – | O=C([O-])c1ccc(Oc2ccc(-c3nc4c([O-])ncnc4s3)cc2[N+](=O)[O-])cc1.[K+].[K+] [Example 27, 2-[4-(4-Carboxyphenoxy)-3-nitrophenyl]-4-hydroxythiazolo[5,4-d]pyrimidine dipotassium salt] | – | In Vivo (%) allopurinol (3 mg/kg) [2]: 36%
29 | – | O=[N+]([O-])c1cc(-c2nc3c(O)ncnc3s2)ccc1Oc1ccc(O)cc1 [Example 35, 4-Hydroxy-2-[4-(4-hydroxyphenoxy)-3-nitro-phenyl]thiazolo[5,4-d]pyrimidine] | 61% | –
30 | 7.57 | N#Cc1cc(-c2nc3c(O)ncnc3s2)ccc1Oc1ccc(Cl)cc1 [Example 23, 2-[4-(4-Chlorophenoxy)-3-cyanophenyl]-4-hydroxythiazolo[5,4-d]pyrimidine] | – | –
31 | 7.87 | O=[N+]([O-])c1cc(-c2nc3c(O)ncnc3o2)ccc1Oc1ccc(F)cc1 [Example 39, 2-[4-(4-Fluorophenoxy)-3-nitrophenyl]-4-hydroxyoxazolo[5,4-d]pyrimidine potassium salt] | – | –
32 | – | N#Cc1cc(-c2nc3c([O-])ncnc3s2)ccc1Sc1ccc(F)cc1.[K+] [Example 43, 2-[3-Cyano-4-(4-fluorophenylthio)phenyl]-4-hydroxythiazolo[5,4-d]pyrimidine potassium salt] | 185% | –

Row | Compound | pIC50 [1] | In Vivo (%) TMX-67 (0.3 mg/kg) [2] | other results
33 | 2-[3-Cyano-4-(2-fluorophenoxy)phenyl]-4-hydroxythiazolo[5,4-d]pyrimidine potassium salt [Example 46] | 7.75 | 223% | –
